The record followed here is patent US7157491B2, “Aryl-carbaldehyde oxime derivatives and their use as estrogenic agents” (Wyeth, priority 2003, dated 2007).

One data set addresses T1, human ERα (Homo sapiens, UniProt P03372).
T1 construct: made in house; host or cells: E. coli
T1 sequence (P03372 311-547 limits assumed): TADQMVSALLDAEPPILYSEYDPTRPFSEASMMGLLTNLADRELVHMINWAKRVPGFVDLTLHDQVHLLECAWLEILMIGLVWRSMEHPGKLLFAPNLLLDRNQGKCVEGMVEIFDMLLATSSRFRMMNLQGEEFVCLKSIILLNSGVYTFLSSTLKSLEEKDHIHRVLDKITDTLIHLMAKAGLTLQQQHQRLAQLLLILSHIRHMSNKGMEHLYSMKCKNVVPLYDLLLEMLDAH
Briefly: Competition with [3H]-17β-estradiol for binding to ERα ligand binding domain (E. coli lysate). Conditions: 2 nM [3H]-17β-estradiol, 5-15 hours at room temperature; concentration that decreases total 17β-estradiol binding by 50%. The procedure:
(§1) Representative examples of the invention were evaluated for their ability to compete with 17β-estradiol for both ERα and ERβ. This test procedure provides the methodology for one to determine whether a particular compound binds to the estrogen receptor (and is therefore “estrogenic”) and whether there is selectivity for ERα or ERβ. […] 17β-estradiol is included as a standard reference for comparison. The procedure used is briefly described below. A crude lysate of E. coli expressing the estrogen receptor ligand binding domains (D, E, & F) of human ERα or ERβ was prepared. Both receptors and compounds were diluted in 1× Dulbecco's PBS (DPBS) supplemented with 1 mM EDTA. Using a high binding masked microtiter plate, 100 uL of receptor (1 uG/well) was combined with 2 nM [^3H]-17β-estradiol and various concentrations of compound. After between 5 and 15 hours at room temperature, the plates were washed with DPBS/1 mM EDTA and bound radioactivity determined by liquid scintillation counting.

A further data set has as its target T2, human ERβ (Homo sapiens, UniProt Q92731).
T2 construct: made in house; host or cells: E. coli
Nature of the data set: Competition with [3H]-17β-estradiol for binding to ERβ ligand binding domain (E. coli lysate). Conditions: 2 nM [3H]-17β-estradiol, 5-15 hours at room temperature; concentration that decreases total 17β-estradiol binding by 50%. The procedure:
as §1

The term melting point denotes the temperature of the solid-liquid transition. Usually IC50 stands for the point on the concentration scale where inhibition reaches its midpoint. A lower IC50 goes with inhibition by little substance.

T2 sequence (Q92731 264-498 limits assumed): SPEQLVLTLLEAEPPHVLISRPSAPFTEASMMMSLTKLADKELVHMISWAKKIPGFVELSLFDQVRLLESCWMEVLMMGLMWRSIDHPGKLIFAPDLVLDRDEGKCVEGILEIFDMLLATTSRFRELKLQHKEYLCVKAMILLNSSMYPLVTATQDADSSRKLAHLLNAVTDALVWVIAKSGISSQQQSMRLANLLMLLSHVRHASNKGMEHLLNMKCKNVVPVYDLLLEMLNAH

For `ON=Cc1ccc(-c2ccc(O)cc2)c2ccccc12` [Example 3, 4-(4-Hydroxyphenyl)-1-naphthaldehyde oxime], the melting point lay in the range of 200 to 200.5 °C.
Still for that read-out and setting: then `ON=Cc1ccc(-c2ccc(O)c(F)c2)c2ccccc12` [Example 6, 4-(3-Fluoro-4-hydroxyphenyl)-naphthalene-1-carbaldehyde oxime], with 187 to 188 °C; and `ON=Cc1ccc(-c2ccc(O)cc2)c2ccsc12` [Example 12, 4-(4-Hydroxyphenyl)-1-benzothiophene-7-carbaldehyde oxime], with 229.5 to 230.5 °C.
Still for that read-out and setting: as for `ON=Cc1ccc(-c2ccc(O)cc2)c2sccc12` [Example 19, 7-(4-Hydroxyphenyl)-1-benzothiophene-4-carbaldehyde oxime], the figure is 230 to 231 °C; as for `ON=Cc1ccc(-c2ccc(O)cc2)c2occc12` [Example 25, 7-(4-Hydroxyphenyl)-1-benzofuran-4-carbaldehyde oxime], 216 to 217 °C; as for `ON=Cc1ccc(-c2ccc(O)cc2)c2ccoc12` [Example 31, 4-(4-Hydroxyphenyl)-benzofuran-7-carbaldehyde oxime], 219 to 220 °C.
In the case of `ON=Cc1cc(-c2ccc(O)cc2)cc2ccoc12` [Example 37, 5-(4-Hydroxyphenyl)-1-benzofuran-7-carbaldehyde oxime], the IC50 is 3220 nM at human ERα and 326 nM at human ERβ.
`ON=Cc1cc(-c2ccc(O)cc2)c2occc2c1` [Example 43, 7-(4-Hydroxyphenyl)-benzofuran-5-carbaldehyde oxime] had a melting point of 192 to 194 °C. For the same molecule, the IC50 on human ERα was over 5000 nM. The molecule further displayed a 50% inhibitory concentration (IC50) at human ERβ of 2210 nM.
